Assay results: patent publication US8410292B2, “Epoxy-guaiane derivatives and treatment of cancer” (The United States of America, as represented by the …, priority 2008, dated 2013)
Where two headings read alike, the source gives them in different places.

Key:
renal cancer cell lines = assay: NCI 60-cell line protocol, summary over renal lines; format: cell-based, human
Procedure: (§1) Samples are tested in the standard National Cancer Institute 60-cell line protocol. First, they are tested against all 60 cell lines in a single final concentration of 10 micromolar. Then, they are separately tested in five 10-fold dilutions. The drug exposure is two days, with an SRB endpoint.

RXF-393 = assay: NCI 60-cell line protocol, RXF-393; format: cell-based, human; conditions: two days exposure, SRB endpoint
Procedure: as §1

CAKI-1 = assay: NCI 60-cell line protocol, CAKI-1; format: cell-based, human; conditions: two days exposure, SRB endpoint
Procedure: as §1

UO-31 [1] = assay: NCI 60-cell line protocol, UO-31; format: cell-based, human; conditions: two days exposure, SRB endpoint
Procedure: as §1

SF-295 = assay: 2-day cell growth assay, SF-295; format: cell-based, human
Procedure: (§2) The primary endpoints of these assays are the formazan XTT, or alternatively, and in preference, the protein stain sulforhodamine B. All samples are tested in […] 10-fold dilutions with no drug and no-cell controls on each microtiter plate. IC50 values are calculated using SOFTMAX™ software as supplied by the manufacturer of the microplate reader.

UO-31 [2] = assay: 2-day cell growth assay, UO-31; format: cell-based, human
Procedure: as §2

TK-10 = assay: NCI 60-cell line protocol, TK-10; format: cell-based, human; conditions: two days exposure, SRB endpoint
Procedure: as §1

all 60 cell lines = assay: NCI 60-cell line protocol, all 60 lines; format: cell-based, human; conditions: mean over all 60 cell lines, read-out: All 60 mean GI-50
Procedure: as §1

A498 = assay: NCI 60-cell line protocol, A498; format: cell-based, human; conditions: two days exposure, SRB endpoint
Procedure: as §1

ACHN = assay: NCI 60-cell line protocol, ACHN; format: cell-based, human; conditions: two days exposure, SRB endpoint
Procedure: as §1

786-0 = assay: NCI 60-cell line protocol, 786-0; format: cell-based, human; conditions: two days exposure, SRB endpoint
Procedure: as §1

SN12C = assay: NCI 60-cell line protocol, SN12C; format: cell-based, human; conditions: two days exposure, SRB endpoint
Procedure: as §1

[3] = tested on: renal cancer cell line A498; assay: 2-cell assay; format: cell-based
Procedure: A sample ([…]) of englerin B was stirred in pyridine (0.25 mL) and acetic anhydride (0.25 mL) overnight at room temperature. The solvents were evaporated under vacuum and the product extracted in dichloromethane. The crude product was purified on pTLC (Si gel 60 F254; 2% MeOH/DCM) to give englerin B monoacetate (2.0 mg, 95%).

[4] = median over renal cell lines, read-out: Median GI50
[5] = Homo sapiens, SF-295, 48 h, insensitive CNS tumor line, read-out: SF-295 IC50
[6] = Homo sapiens, UO-31, 48 h, 2-day cell growth assay, sensitive renal line; read-out: UO-31 IC50
[7] = ratio of IC50 SF-295 to IC50 UO-31
[8] = geometric mean over renal cell lines, read-out: Geometric Mean GI50
[9] = mean over renal cell lines, read-out: Mean GI50
[10] = insensitive CNS tumor line, read-out: SF-295 IC50
[11] = 2-day cell growth assay, sensitive renal line; read-out: UO-31 IC50

| Compound | GI50 (renal cancer cell lines; [4]) | GI50 (RXF-393) | Selectivity SF-295/UO-31 (UO-31 [2]; [7]) | GI50 (A498) | GI50 (ACHN) | GI50 (renal cancer cell lines; [8]) | GI50 (renal cancer cell lines; [9]) | GI50 (CAKI-1) | IC50 (SF-295; [10]) | IC50 (UO-31 [2]; [11]) | GI50 (TK-10) | GI50 (all 60 cell lines) | GI50 (786-0) | GI50 (SN12C) | GI50 (UO-31 [1]) | further results |
| --- | --- | --- | --- | --- | --- | --- | --- | --- | --- | --- | --- | --- | --- | --- | --- | --- |
| CC1CCC2C1C(OC(=O)C(Cl)C(Cl)c1ccccc1)C1(C(C)C)CC(OC(=O)CO)C2(C)O1 (single isomer, unassigned) [2′,3′-Dichlorodihydroenglerin A (epimer 1)] | 680 nM | 930 nM | 75 | 140 nM | 140 nM | – | – | – | – | – | – | – | – | – | – | GI50 (renal cancer cell lines; Homo sapiens, 60 cell, geometric mean over renal cell lines, read-out: Geometric Mean GI50): 940 nM; GI50 (renal cancer cell lines; Homo sapiens, 60 cell, mean over renal cell lines, read-out: Mean GI50): 4090 nM; GI50 (CAKI-1; Homo sapiens, CAKI-1, 48 h): 420 nM; GI50 (UO-31 [1]; Homo sapiens, UO-31, 48 h): 390 nM; IC50 (SF-295; [5]): 90000 nM; IC50 (UO-31 [2]; [6]): 1200 nM; GI50 (TK-10; Homo sapiens, TK-10, 48 h): 18000 nM; GI50 (all 60 cell lines; Homo sapiens, 60 cell): 8300 nM; GI50 (786-0; Homo sapiens, 786-0, 48 h): 12000 nM; GI50 (SN12C; Homo sapiens, SN12C, 48 h): 1000 nM |
| CC1CCC2C1C(OC(=O)C(Cl)C(Cl)c1ccccc1)C1(C(C)C)CC(OC(=O)CO)C2(C)O1 (single isomer, unassigned) [2′,3′-Dichlorodihydroenglerin A (epimer 2)] | 320 nM | 320 nM | 80 | 49 nM | 320 nM | 720 nM | 5550 nM | 320 nM | 60000 nM | 750 nM | 25000 nM | 11700 nM | 12000 nM | 1000 nM | – | – |
| CC1CCC2C1C(OC(=O)C(Cl)C(O)c1ccccc1)C1(C(C)C)CC(OC(=O)CO)C2(C)O1 (single isomer, unassigned) [2′-Chloro,3′-hydroxydihydroenglerin (epimer 1), 2′-Chloro,3′-hydroxydihydroenglerin A (epimer 1)] | 490 nM | – | >104 | 180 nM | 320 nM | 700 nM | 2580 nM | 460 nM | – | – | – | – | 1700 nM | 630 nM | 250 nM | GI50 (RXF-393; Homo sapiens, RXF 393, 48 h): 510 nM; IC50 (SF-295; read-out: SF-295 IC50, insensitive CNS tumor line): > 100000 nM; IC50 (UO-31 [2]; read-out: UO-31 IC50; 2-day cell growth assay, sensitive renal line): 960 nM; GI50 (TK-10; Homo sapiens, TK-10, 48 h): 17000 nM; GI50 (all 60 cell lines; Homo sapiens, 60 cell): 6900 nM |
| CC1CCC2C1C(OC(=O)C(Cl)C(O)c1ccccc1)C1(C(C)C)CC(OC(=O)CO)C2(C)O1 (single isomer, unassigned) [2′-Chloro,3′-hydroxydihydroenglerin (epimer 2), 2′-Chloro,3′-hydroxydihydroenglerin A (epimer 2)] | 3320 nM | 390 nM | 11 | 660 nM | 1380 nM | 3130 nM | 7070 nM | 9300 nM | 92000 nM | 8700 nM | 27000 nM | 12000 nM | 11000 nM | 4700 nM | 1900 nM | – |
| CC1CCC2C1C(OC(=O)C(Cl)C(O)c1ccccc1)C1(C(C)C)CC(OC(=O)CO)C2(C)O1 (single isomer, unassigned) [2′-Chloro,3′-hydroxydihydroenglerin (epimer 3), 2′-Chloro,3′-hydroxydihydroenglerin A (epimer 3)] | – | – | 102 | – | – | – | – | – | 42000 nM | 410 nM | – | – | – | – | – | – |
| CC1CCC2C1C(OC(=O)C(Cl)C(O)c1ccccc1)C1(C(C)C)CC(OC(=O)CO)C2(C)O1 (single isomer, unassigned) [2′-Chloro,3′-hydroxydihydroenglerin (epimer 4), 2′-Chloro,3′-hydroxydihydroenglerin A (epimer 4)] | – | – | 1.25 | – | – | – | – | – | 20000 nM | 16000 nM | – | – | – | – | – | – |
| CCOC(c1ccccc1)C(Cl)C(=O)OC1C2C(C)CCC2C2(C)OC1(C(C)C)CC2OC(=O)CO (stereo not drawn) [2′-Chloro,3′-ethoxydihydroenglerin A] | – | – | 1.94 | – | – | – | – | – | – | – | – | – | – | – | – | IC50 (SF-295; [5]): 35000 nM; IC50 (UO-31 [2]; [6]): 18000 nM |
| CC(C)[C@@]12C[C@@H](OC(=O)CO)[C@@](C)(O1)[C@@H]1CC[C@@H](C)[C@H]1[C@@H]2OC(=O)/C(Cl)=C/c1ccccc1 [2′-Chloroenglerin A] | 40 nM | 19 nM | 78 | 28 nM | 41 nM | 210 nM | 3960 nM | 35 nM | 72000 nM | 920 nM | 21000 nM | 5600 nM | 10000 nM | 560 nM | 35 nM | – |
| englerin B monoacetate | – | – | – | – | – | – | – | – | – | – | – | – | – | – | – | selectivity against renal cancer cell line A498 [3]: ~400 fold |
